Measurements: US20260217687A1 (NeoPhore Limited, priority 2023, published 2026)

Molecular target: T1, recombinant N-terminal MLH1 (residues 15-340) (Homo sapiens, UniProt P40692)
T1 construct: recombinant N-terminal MLH1 (residues 15-340)
T1 sequence (P40692 15-340): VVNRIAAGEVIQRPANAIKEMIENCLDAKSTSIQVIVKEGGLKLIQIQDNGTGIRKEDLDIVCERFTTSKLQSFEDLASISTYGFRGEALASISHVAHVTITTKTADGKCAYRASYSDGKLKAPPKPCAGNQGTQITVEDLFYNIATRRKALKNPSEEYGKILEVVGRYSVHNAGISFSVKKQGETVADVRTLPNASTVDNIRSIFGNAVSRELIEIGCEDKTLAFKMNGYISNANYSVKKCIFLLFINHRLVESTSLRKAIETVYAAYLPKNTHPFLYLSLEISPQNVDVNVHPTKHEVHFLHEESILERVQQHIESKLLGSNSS
Assay: Fluorescence Polarisation Assay for MLH1
Type: binding
Conditions: 100 nM N-terminal MLH1, 5 nM probe compound
In short: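 Fluorescence polarisation displacement: 100 nM MLH1 (15-340) preincubated 30 min at room temperature with compound, then 5 nM rhodamine-labelled probe added and read immediately. Buffer 25 mM HEPES pH 7.5, 250 mM NaCl, 10 mM MgCl2, 0.01% Triton X-100, 5 mM DTT; normalised to no-inhibitor and no-enzyme controls.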

SMILES	IC50
O=C(c1c(O)cc(C(F)F)cc1OCc1ccccc1)N1Cc2cccc(OC3CCOC3)c2C1 (centres unmarked) [Example 4.79, (2-(Benzyloxy)-4-(difluoromethyl)-6-hydroxyphenyl)(4-((tetrahydrofuran-3-yl)oxy)isoindolin-2-yl)methanone]	1 to 10 µM
O=C(c1c(O)cc(C(F)F)cc1OCc1ccccc1)N1CCc2cccc(OC3CCOC3)c2C1 (centres unmarked) [Example 4.80]	1 to 10 µM
O=C(c1c(O)cc(F)cc1OCc1ccccc1)N1Cc2cccc(N[C@@H]3CCOC3)c2C1 [Example 6, (R)-(2-(Benzyloxy)-4-fluoro-6-hydroxyphenyl)(4-((tetrahydrofuran-3-yl)amino)isoindolin-2-yl)methanone]	1 to 10 µM
O=C(c1c(O)cc(Cl)cc1OCc1ccccc1)N1Cc2cccc(N[C@@H]3CCOC3)c2C1 [Example 7, (R)-(2-(Benzyloxy)-4-chloro-6-hydroxyphenyl)(4-((tetrahydrofuran-3-yl)amino)isoindolin-2-yl)methanone]	1 to 10 µM
COc1cc2c(c(N[C@@H]3CCOC3)c1)CN(C(=O)c1c(O)cc(Cl)cc1OCc1ccccc1)C2 [Example 10.1, (R)-(2-(Benzyloxy)-4-chloro-6-hydroxyphenyl)(6-methoxy-4-((tetrahydrofuran-3-yl)amino)isoindolin-2-yl)methanone]	1 to 10 µM
COc1cc2c(c(N[C@H]3CCOC3)c1)CN(C(=O)c1c(O)cc(Cl)cc1OCc1ccccc1)C2 [Example 10.2, (S)-(2-(Benzyloxy)-4-chloro-6-hydroxyphenyl)(6-methoxy-4-((tetrahydrofuran-3-yl)amino)isoindolin-2-yl)methanone]	0.1 to 1 µM
CN1CC(Nc2cccc3c2CN(C(=O)c2c(O)cc(C#N)cc2OCc2ccccc2)C3)CC1=O (centres unmarked) [Example 10.3, 3-(Benzyloxy)-5-hydroxy-4-(4-((1-methyl-5-oxopyrrolidin-3-yl)amino)isoindoline-2-carbonyl)benzonitrile]	0.1 to 1 µM
N#Cc1cc(O)c(C(=O)N2Cc3cccc(Nc4cncnc4)c3C2)c(OCc2ccccc2)c1 [Example 10.4, 3-(Benzyloxy)-5-hydroxy-4-(4-(pyrimidin-5-ylamino)isoindoline-2-carbonyl)benzonitrile]	1 to 10 µM
CC(=O)N1CC[C@@H](Nc2cccc3c2CN(C(=O)c2c(O)cc(C#N)cc2OCc2ccccc2)C3)C1 [Example 10.5, (R)-4-(4-((1-Acetylpyrrolidin-3-yl)amino)isoindoline-2-carbonyl)-3-(benzyloxy)-5-hydroxybenzonitrile]	0.1 to 1 µM
CC(=O)N1CC[C@H](Nc2cccc3c2CN(C(=O)c2c(O)cc(C#N)cc2OCc2ccccc2)C3)C1 [Example 10.6, (S)-4-(4-((1-Acetylpyrrolidin-3-yl)amino)isoindoline-2-carbonyl)-3-(benzyloxy)-5-hydroxybenzonitrile]	0.1 to 1 µM
N#Cc1cc(O)c(C(=O)N2Cc3cccc(NCc4cocn4)c3C2)c(OCc2ccccc2)c1 [Example 10.9, 3-(Benzyloxy)-5-hydroxy-4-(4-((oxazol-4-ylmethyl)amino)isoindoline-2-carbonyl)benzonitrile]	0.1 to 1 µM
N#Cc1cc(O)c(C(=O)N2Cc3cccc(NCC4CCOC4)c3C2)c(OCc2ccccc2)c1 (centres unmarked) [Example 10.10, 3-(Benzyloxy)-5-hydroxy-4-(4-(((tetrahydrofuran-3-yl)methyl)amino)isoindoline-2-carbonyl)benzonitrile]	1 to 10 µM
COc1cccc2c1CN(C(=O)c1c(O)cc(C#N)cc1OCc1ccccc1)C2 [Example 10.11, 3-(Benzyloxy)-5-hydroxy-4-(4-methoxyisoindoline-2-carbonyl)benzonitrile]	1 to 10 µM
N#Cc1cc(O)c(C(=O)N2CCc3cccc(N[C@@H]4CCOC4)c3C2)c(OCc2ccccc2)c1 [Example 10.12, (R)-3-(Benzyloxy)-5-hydroxy-4-(8-((tetrahydrofuran-3-yl)amino)-1,2,3,4-tetrahydroisoquinoline-2-carbonyl)benzonitrile]	1 to 10 µM
COc1cc2c(c(N[C@@H]3CCOC3)c1)CN(C(=O)c1c(O)cc(C#N)cc1OCc1ccccc1)C2 [Example 10.13, (R)-3-(Benzyloxy)-5-hydroxy-4-(6-methoxy-4-((tetrahydrofuran-3-yl)amino)isoindoline-2-carbonyl)benzonitrile]	0.1 to 1 µM
COc1cc2c(c(N[C@H]3CCOC3)c1)CN(C(=O)c1c(O)cc(C#N)cc1OCc1ccccc1)C2 [Example 10.14, (S)-3-(Benzyloxy)-5-hydroxy-4-(6-methoxy-4-((tetrahydrofuran-3-yl)amino)isoindoline-2-carbonyl)benzonitrile]	0.1 to 1 µM
CN(C)Cc1ccc2c(c1)CN(C(=O)c1c(O)cc(C#N)cc1OCc1ccccc1)C2 [Example 10.15, 3-(Benzyloxy)-4-(5-((dimethylamino)methyl)isoindoline-2-carbonyl)-5-hydroxybenzonitrile]	1 to 10 µM
CC(=O)N1CCC(Nc2cccc3c2CN(C(=O)c2c(O)cc(C#N)cc2OCc2ccccc2)C3)CC1 [Example 10.16, 4-(4-((1-Acetylpiperidin-4-yl)amino)isoindoline-2-carbonyl)-3-(benzyloxy)-5-hydroxybenzonitrile]	0.1 to 1 µM
CC(=O)N1CCC[C@@H](Nc2cccc3c2CN(C(=O)c2c(O)cc(C#N)cc2OCc2ccccc2)C3)C1 [Example 10.17, (R)-4-(4-((1-Acetylpiperidin-3-yl)amino)isoindoline-2-carbonyl)-3-(benzyloxy)-5-hydroxybenzonitrile]	1 to 10 µM
CC(=O)N1CCC[C@H](Nc2cccc3c2CN(C(=O)c2c(O)cc(C#N)cc2OCc2ccccc2)C3)C1 [Example 10.18, (S)-4-(4-((1-Acetylpiperidin-3-yl)amino)isoindoline-2-carbonyl)-3-(benzyloxy)-5-hydroxybenzonitrile]	0.1 to 1 µM
N#Cc1cc(O)c(C(=O)N2Cc3cccc(NC4COC(=O)C4)c3C2)c(OCc2ccccc2)c1 (centres unmarked) [Example 10.19, 3-(Benzyloxy)-5-hydroxy-4-(4-((5-oxotetrahydrofuran-3-yl)amino)isoindoline-2-carbonyl)benzonitrile]	0.1 to 1 µM

Further lines, results first:

IC50	SMILES
< 0.1 µM	CN(C)CCOc1cc2c(c(NC3CCCC3)c1)CN(C(=O)c1c(O)cc(C(F)F)cc1OCc1ccccc1)CC2 [Example 4.72, (2-(Benzyloxy)-4-(difluoromethyl)-6-hydroxyphenyl)(8-(cyclopentylamino)-6-(2-(dimethylamino)ethoxy)-3,4-dihydroisoquinolin-2(1H)-yl)methanone]
0.1 to 1 µM	CNc1cc(OCCN(C)C)cc2c1CN(C(=O)c1c(O)cc(C(F)F)cc1OCc1ccccc1)CC2 [Example 4.73, (2-(Benzyloxy)-4-(difluoromethyl)-6-hydroxyphenyl)(6-(2-(dimethylamino)ethoxy)-8-(methylamino)-3,4-dihydroisoquinolin-2(1H)-yl)methanone]
0.1 to 1 µM	CN(C)CCOc1cc2c(c(C(F)F)c1)CN(C(=O)c1c(O)cc(C(F)F)cc1OCc1ccccc1)CC2 [Example 4.74, (2-(Benzyloxy)-4-(difluoromethyl)-6-hydroxyphenyl)(8-(difluoromethyl)-6-(2-(dimethylamino)ethoxy)-3,4-dihydroisoquinolin-2(1H)-yl)methanone]
< 0.1 µM	CN(C)CCOc1cc2c(c(N[C@@H]3CCOC3)c1)CN(C(=O)c1c(O)cc(C(F)F)cc1OCc1ccccc1)C2 [Example 4.75, (R)-(2-(Benzyloxy)-4-(difluoromethyl)-6-hydroxyphenyl) (6-(2-(dimethylamino)ethoxy)-4-((tetrahydrofuran-3-yl)amino)isoindolin-2-yl)methanone]
< 0.1 µM	CN(C)CCOc1cc2c(c(N[C@H]3CCOC3)c1)CN(C(=O)c1c(O)cc(C(F)F)cc1OCc1ccccc1)C2 [Example 4.76]
0.1 to 1 µM	COCCOc1ccc2c(c1)CN(C(=O)c1c(O)cc(C(F)F)cc1OCc1ccccc1)C2 [Example 4.77, (2-(Benzyloxy)-4-(difluoromethyl)-6-hydroxyphenyl)(5-(2-methoxyethoxy)isoindolin-2-yl)methanone]
0.1 to 1 µM	O=C(c1c(O)cc(C(F)F)cc1OCc1ccccc1)N1Cc2ccc(OC3CCOCC3)cc2C1 [Example 4.78, (2-(Benzyloxy)-4-(difluoromethyl)-6-hydroxyphenyl) (5-((tetrahydro-2H-pyran-4-yl)oxy)isoindolin-2-yl)methanone]
0.1 to 1 µM	O=C(c1c(O)cc(F)cc1OCc1ccccc1)N1Cc2cccc(N[C@H]3CCOC3)c2C1 [Example 5, (S)-(2-(Benzyloxy)-4-fluoro-6-hydroxyphenyl)(4-((tetrahydrofuran-3-yl)amino)isoindolin-2-yl)methanone]
0.1 to 1 µM	O=C(c1c(O)cc(Cl)cc1OCc1ccccc1)N1Cc2cccc(N[C@H]3CCOC3)c2C1 [Example 8, (S)-(2-(Benzyloxy)-4-chloro-6-hydroxyphenyl)(4-((tetrahydrofuran-3-yl)amino)isoindolin-2-yl)methanone]
0.1 to 1 µM	CN(C)CCOc1cc2c(c(N[C@@H]3CCOC3)c1)CN(C(=O)c1c(O)cc(Cl)cc1OCc1ccccc1)C2 [Example 9, (R)-(2-(Benzyloxy)-4-chloro-6-hydroxyphenyl)(6-(2-(dimethylamino)ethoxy)-4-((tetrahydrofuran-3-yl)amino)isoindolin-2-yl)methanone]
< 0.1 µM	CN(C)CCOc1cc2c(c(N[C@H]3CCOC3)c1)CN(C(=O)c1c(O)cc(Cl)cc1OCc1ccccc1)C2 [Example 10, (S)-(2-(Benzyloxy)-4-chloro-6-hydroxyphenyl)(6-(2-(dimethylamino)ethoxy)-4-((tetrahydrofuran-3-yl)amino)isoindolin-2-yl)methanone]
